The values below come from patent US9416181B2, “Compositions for cell culture and methods of using the same” (AbbVie Inc., priority 2013, dated 2016).

A value given as a limit tells only on which side of the number the result lay.

Assay type in all cases: cell-based, Chinese Hamster
In test [1] the test system is Cell Line 1 (CHO) expressing Antibody 1. Kind of test: Acidic species variants (WCX-10) of Antibody 1, Cell Line 1 3 L bioreactor fed-batch culture. Conditions: for drop in absolute acidic species percentage points: 3 L bioreactor; for drop in absolute acidic species percentage points / relative total AR (ratio to Day 8 value of unsupplemented control): Day 15 harvest. The procedure:
A recombinant Chinese Hamster Ovary (CHO) cell line (Cell Line 1) expressing a humanized monoclonal antibody (Antibody 1) was evaluated in 2 different cultures vessels (shaker flasks and 3 L laboratory-scale bioreactors). The cell line was of CHO DUX-B11 origin based on a DHFR (dihydrofolate reductase) expression system and cultured in a chemically defined basal media, and fed periodically with a chemically-defined feed media (CDFM). The media utilized throughout all of the experiments were chemically-defined, and both animal-component free, and protein-free. Each of the respective media were supplemented as needed with selected bioflavonoids to evaluate for their potential impact on the resulting acidic species profile. In preparation of the cultures, the cell lines were serially expanded through separate seed train inoculums to generate enough cells for inoculation. Process conditions utilized during the cultures were slightly different depending on the culture scale, but similar within each scale to the respective non-bioflavonoid supplemented control conditions. All bioflavonoids utilized were purchased from Sigma-Aldrich (St. Louis, Mo.).
Samples were analyzed using an HPLC system equipped with a ProPac WCX-10 analytical column (Thermo Scientific, Sunnyvale, Calif.). Approximately 100 μg of sample was loaded in 6% Buffer B (10 mM sodium phosphate, 500 mM NaCl, pH 5.5) and 94% Buffer A (10 mM sodium phosphate, pH 7.5). The column was run at a flow rate of 1.0 mL/min. The protein was eluted from the column by increasing the buffer B composition from 6% to 16% over 20 minutes. The protein peaks were measured using UV absorbance at 280 nm as the peaks eluted from the column. The column was regenerated using 100% buffer B followed be a re-equilibration period using initial condition before the injection of the next sample. Peaks eluting before the main peak were termed “acidic peaks” and peaks eluting after the main peak were called “basic peaks” (FIG. 2).
In the next experiment, lab-scale bioreactors were used to (1) confirm the shaker experiment results and (2) to determine whether higher concentration range of EGCG is suitable for supplementing into cell culture. EGCG was added to the feed of the batch culture at the concentrations of 20 mg/L (mid), 50 mg/L (high) and 125 mg/L (high+) and 250 mg/L (high++) in this reactor experiment.
Cell Line 1 was evaluated in larger-scale feed batch cultures with the feed media supplemented with various bioflavonoids. […] By contrast, cell growth performance was slightly different for the 0.1 g/L EGCG supplemented condition. […] However, the cell viability remained high at 0.1 g/L EGCG. All cultures were successfully harvested on Day 15 post-inoculation. The harvest titers measured from the evaluated cultures were similar.
Cell Line 1 was also evaluated in laboratory-scale fedbatch cultures with the feed media supplemented with various bioflavonoids. […] Cell growth performance was slightly different however with the 0.1 g/L EGCG supplemented condition. […] All cultures were able to be successfully harvested on Day 15 post-inoculation.

Test [2] relates to Cell Line 2 (CHO) expressing Antibody 2. Briefly: Acidic species variants (WCX-10) of Antibody 2, Cell Line 2 shake flask culture. Conditions: 0.05 and 0.1 g/L; shaker. The procedure: (§1) Four different recombinant Chinese Hamster Ovary (CHO) cell lines expressing four different recombinant glycoproteins were evaluated in either shaker flask culture, or 3 L laboratory scale bioreactors. Cell Line 1 was genetically engineered to express Antibody 1, Cell Line 2 was genetically engineered to express Antibody 2, Cell Line 3 was genetically engineered to express dual variable domain immunoglobulin 1 (DVD1) and Cell Line 4 was genetically engineered to express dual variable domain immunoglobulin 2 (DVD2).
Charge Heterogeneity via Weak Cation Exchange Chromatography-Samples were analyzed using an HPLC system equipped with a ProPac WCX-10 analytical column (Thermo Scientific, Sunnyvale, Calif.). Approximately 100 μg of sample was loaded in 6% Buffer B (10 mM sodium phosphate, 500 mM NaCl, pH 5.5) and 94% Buffer A (10 mM sodium phosphate, pH 7.5). The column was run at a flow rate of 1.0 mL/min. […] The protein peaks were measured using UV absorbance at 280 nm as the peaks eluted from the column. […]
To further evaluate the impact of EGCG on acidic region variants, Antibody 2 and dual variable domain immunoglobulin 1 (DVD1) were examined. Antibody 2 was evaluated in a set of shaker and lab-scale bioreactor experiments with two feed amounts (100% and 50%) as unsupplemented control conditions. […]

For test [3], the system named is Cell Line 3 (CHO) expressing DVD1. Kind of test: Acidic species variants (WCX-10) of DVD1, Cell Line 3 shake flask culture. The conditions noted are these: shaker. The procedure:
as §1
Charge Heterogeneity via Weak Cation Exchange Chromatography-Samples were analyzed using an HPLC system equipped with a ProPac WCX-10 analytical column (Thermo Scientific, Sunnyvale, Calif.). Approximately 100 μg of sample was loaded in 6% Buffer B (10 mM sodium phosphate, 500 mM NaCl, pH 5.5) and 94% Buffer A (10 mM sodium phosphate, pH 7.5). The column was run at a flow rate of 1.0 mL/min. The protein was eluted from the column by increasing the buffer B composition from 6% to 16% over 20 minutes. The protein peaks were measured using UV absorbance at 280 nm as the peaks eluted from the column. The column was regenerated using 100% buffer B followed be a re-equilibration period using initial condition before the injection of the next sample. Peaks eluting before the main peak were termed ‘acidic peaks’ and peaks eluting after the main peak were called ‘basic peaks’ (FIG. 2).
To assess the impact of EGCG on acidic region variants on recombinant proteins, dual variable domain immunoglobulin 1 (DVD1) was examined. EGCG was added at the concentrations of 0.02 g/L, 0.05 g/L, 0.1 g/L and 0.2 g/L into the feed in a shaker experiment (See Table 2). […] At the concentration of 0.2 g/L, EGCG led to 15% viability decrease and 28% productivity loss compared to control condition. Upon measurement of the acidic species variants, EGCG supplement reduced the total acidic species in a dose-dependent manner. At the concentrations of 0.02 g/L, 0.05 g/L, 0.1 g/L and 0.2 g/L respectively, EGCG reduced the total acidic species content 5%, 10%, 17% and 22% relatively compared to the unsupplemented control (FIG. 13D).

The mark [4] stands for this setting: 50, 125 and 250 mg/L in feed, bioreactor.

Consider `O=C(O[C@@H]1Cc2c(O)cc(O)cc2O[C@@H]1c1cc(O)c(O)c(O)c1)c1cc(O)c(O)c(O)c1` [EGCG, epigallocatechin gallate], for which the results for the “drop in absolute acidic species percentage points” value in test [1] (0.05 g/L in CDFM) and in test [1] (0.1 g/L in CDFM) were 4% and 10%, respectively. In addition, the “relative total AR (ratio to Day 8 value of unsupplemented control)” value in test [1] (0.05 g/L in CDFM, bioreactor) is reported as 1.10; in test [1] (0.1 g/L in CDFM, bioreactor) it was 0.69. In test [1] (setting [4]), the “reduction of total acidic species content, absolute value” is on record as “at least 2%”. Besides, in test [1] (setting [4]), the “reduction of total acidic species content, relative value” is given as no less than 16%. For the same compound, the “relative reduction of total acidic species content vs unsupplemented control” value in test [2] is listed as 21%-45%; in test [3] (0.02 g/L in feed), 5%; in test [3] (0.05 g/L in feed), 10%; in test [3] (0.1 g/L in feed), 17%; in test [3] (0.2 g/L in feed), 22%.
